Test results published in patent publication US12570661B2, “Isoform-specific aldehyde dehydrogenase inhibitors” (The Board of Trustees of the Leland Stanford Junior …, priority 2020, dated 2026).

Columns and labels:
SW480 cells = assay: Seahorse oxygen-consumption-rate assay (SW480); type: cell-based; conditions: Homo sapiens
Protocol: SW480 cells were seeded into a XF96 microplate (Agilent) at a density of 2×10^4 cells/well and cultured for 24 h. The cells were then incubated for 1 h at 37° C. in a non-CO2 incubator, and the plate was then loaded into a 96-well Seahorse XF analyzer (Agilent) and sequentially injected with the indicated compounds, 1 μM oligomycin A, 1 μM FCCP, or 0.5 μM rotenone/antimycin according to the Agilent Mito Stress protocol. The oxygen consumption rates (OCRs, pmol/min) for each well were measured every 5 min for a 15-min period. Basal OCR values was normalized as 100% for data analyses.

Hedgehog (Hh) signaling = assay: Hh pathway assay (Shh-LIGHT2 Gli-dependent luciferase reporter, NIH-3T3); type: cell-based, murine; conditions: Mus musculus; read-out: IC50 in Hh pathway assays
Protocol: NIH-3T3 cells stably transfected with Gli-dependent firefly luciferase reporter (Shh-LIGHT2 cells (Taipale, J. et al. (2000) Nature 406, 1005-1009) were seeded into 96-well plates at a density of 2×10^4 cells/well and cultured for 24 h. The cells were then cultured in low-serum (0.5% CS) media containing 100 U/mL penicillin, 100 μg/mL streptomycin, and 200 nM Smoothened agonist (SAG) (Chen, J. K. et al. (2002) Proc. Natl. Acad. Sci. U.S.A. 99, 14071-14076; Frank-Kamenetsky, M. et al. (2002) J. Biol. 1, 10) for 30 h. CellTiter AQueous One (20 μL/well; Promega) was added to the cells and incubated for 30 min at 37° C., and cell viabilities were measured as the 490-nm absorbance of the culture media using a Spectramax M2e microplate reader (Molecular Devices). The cells were then washed with PBS and incubated with Bright-Glo reagent (100 μL/well; Promega) for 5 min at room temperature. The resulting chemiluminescence was measured on a Veritas microplate luminometer (Turner BioSystems) and normalized to the CellTiter signal. The normalized luciferase activities for each compound treatment regimen were normalized further to the DMSO control, and dose-responsive curves were generated using Prism software (GraphPad).

ALDH2 = target: T1, ALDH2 (Homo sapiens, UniProt P05091); assay: ALDH2 enzyme kinetics assay; type: biochemical; conditions: 50-μM compound concentration
T1 construct: made in house
T1 sequence (P05091 18-517): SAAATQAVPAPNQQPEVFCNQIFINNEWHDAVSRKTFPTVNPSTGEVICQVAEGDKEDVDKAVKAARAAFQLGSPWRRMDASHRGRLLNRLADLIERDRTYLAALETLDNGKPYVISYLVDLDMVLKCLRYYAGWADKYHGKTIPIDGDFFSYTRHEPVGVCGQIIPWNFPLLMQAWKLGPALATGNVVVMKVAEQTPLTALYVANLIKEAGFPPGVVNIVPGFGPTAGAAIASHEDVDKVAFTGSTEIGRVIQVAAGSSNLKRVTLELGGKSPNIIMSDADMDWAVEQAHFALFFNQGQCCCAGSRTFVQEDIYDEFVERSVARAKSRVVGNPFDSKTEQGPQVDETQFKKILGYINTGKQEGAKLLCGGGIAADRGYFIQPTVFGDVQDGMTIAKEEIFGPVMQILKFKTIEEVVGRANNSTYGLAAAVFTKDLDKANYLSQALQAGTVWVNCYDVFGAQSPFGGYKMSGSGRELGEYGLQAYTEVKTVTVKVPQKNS
Protocol: Cloning, expression, and purification of human recombinant ALDH1A1, ALDH1A3, ALDH2, ALDH3A1, ALDH3A2, ALDH4A1, ALDH5A1 and ALDH7A1 isozymes were conducted as described previously (Chen, C. H. et al. (2015) Proc. Natl. Acad. Sci. U.S.A. 112, 3074-3079). Human ALDH1A2 (Origene, SC109995) and ALDH1B1 (T. Hurley, Indiana University) plasmids were cloned into the pET-15b expression vector (Novagen, 69661-3) containing an N-terminal hexahistidine tag. The mitochondria-targeting sequence of ALDH1B1 was also removed. […] The protein concentration for each fraction was measured (500 μL elution volume was collected as one fraction and was immediately mixed with 500 μL glycerol. The protein concentration for each fraction was measured (600 nm Protein Assay Reagent; Thermo Fisher Scientific), and protein-containing fractions were diluted with an equal volume of glycerol and stored at −80° C. Samples from each step were also collected for SDS-PAGE gel analysis. For ALDH1B1 protein co-expression with chaperones, pET-15b-ALDH1B1 and GroEL/GroES (Addgene, plasmid pBB541) plasmids were co-transformed into competent BL21 E. coli cells, which were subsequently grown in 1 L of Luria-Bertani medium containing 100 μg/mL ampicillin and 50 μg/mL spectinomycin at 37° C. […]

IC50 (SW480 cells) [nM]	IC50 (Hedgehog (Hh) signaling) [nM]	Structure (SMILES)	inhibition of ALDH2 activity (ALDH2)
540	~700	COc1ccccc1-n1cc(-c2ccc(-c3ccccc3)cc2)[n+]2c1CCCCC2 [Imidazolium 2]	neither imidazolium 1 or 2 could inhibit ALDH2 activity
340	–	COc1ccccc1-c1ccc(-c2cn(-c3ccccc3OC)c3[n+]2CCCCC3)cc1.[Br-] [Imidazolium 8]	–
